Results: patent EP0032748B1, “Thiophene derivatives” (UBE INDUSTRIES, LTD., priority 1980, dated 1981)
Where two headings read alike, the source gives them in different places.

How the values were obtained:
[1] = system: cucumber downy mildew fungus (Pseudoperonospora cubensis); type: in vivo; details: for Control value: Table 7, spray liquid 500 ppm, percent lesion area 5 days after inoculation
[2] = system: cucumber (variety: Sagami Hanjiro)
[3] = system: rice seeds (variety: Asominori); assay: Test Example 10: degree of phytotoxicity on rice after seed treatment (injury rating); details: concentration 1000 ppm
[4] = system: rice brown spot fungus; assay: Test Example 10: seed treatment against brown spot of rice (seed disinfection ratio); details: concentration 1000 ppm, seed immersion, 25 days after the seeding
[5] = system: haricot sclerotinia rot (Sclerotinia sclerotiorum); assay: Test Example 5: control effect on haricot sclerotinia rot (spray, detached leaflets); details: Table 6, spray liquid 200 ppm, lesion diameter 3 days after inoculation
Method: On the following day, the first trifoliate leaf was cut off and the each leaflet of trifoliate leaf were placed in a 15 cm petri dish kept under moist conditions by placing a wet filter paper thereon and were inoculated on the center portion of each leaflet with a fungus-containing agar segment obtained by perforating by means of a cork borer of 8 mm in diameter an edge of a colony of a haricot sclerotinia rot (Sclerotinia sclerotiorum) cultured previously at 20°C. for 2 days in PSA medium. Three days after inoculation, the lesion diameter formed was measured by means of slide calipers and the control value (%) was obtained according to the following equation.

[6] = system: paddy rice (variety: Asahi)
[7] = system: rice seeds; assay: Test Example 9: degree of phytotoxicity on rice after seed treatment (injury rating); details: concentration 1000 ppm
[8] = system: Gibberella fujikuroi; assay: Test Example 9: seed treatment against "Bakanae" disease of rice (seed disinfection ratio); details: concentration 1000 ppm, seed immersion at 15°C. for 24 hours, 32 days after the seeding
[9] = system: tomato (variety: Sekai-ichi)
[10] = system: Phytophthora infestans; type: in vivo
[11] = system: rice brown spot fungus (Cochliobolus miyabeanus); assay: Test Example 2: control effect on paddy rice brown spot (spray on potted seedlings); details: Table 3, spray liquid 500 ppm, inoculation one day after spraying, lesions per leaf 5 days after inoculation
[12] = system: hariot (variety: Taisho Kintoki)
[13] = system: pear (variety: Niju-seiki); details: concentration of spray liquid 500 ppm
[14] = system: pear alternaria leaf spot fungus (Alternaria kikuchiana); type: in vivo; details: pear black spot; concentration of spray liquid 500 ppm; three days after the inoculation
[15] = system: Pellicularia sasakii; type: in vivo; details: Table 4, spray liquid 500 ppm, paddy rice sheath blight
[16] = system: paddy rice; details: Table 4, spray liquid 500 ppm
[17] = Table 6, spray liquid 200 ppm, haricot
[18] = Table 3, spray liquid 500 ppm, paddy rice

Compound `CCOC(=O)c1sc(C#N)c(O)c1O` [compound 211] has a Control value [1] of 100% and a Degree of phytotoxicity ([2]; Table 7, spray liquid 500 ppm) of 0.
With `CN(C)C(=S)SSC(=S)N(C)C` [TMTD, reference compound] the Degree of phytotoxicity [3] was 0 and the “Seed disinfection ratio (%)” value [4] was 51%.
`CCCOC(=O)c1sc(C(=O)OCCC)c(OC(C)=O)c1OC(C)=O` [Compound No. 3, 3,4-Diacetoxy-2,5-di-n-propoxycarbonylthiopene] was tested, and the Control value [5] was 100%, the Degree of phytotoxicity ([6]; in vivo) was 0 and the Degree of phytotoxicity [7] was 0. The “Seed disinfection ratio (%)” value [8] was 100%, the Degree of phytotoxicity [3] was 0 and the “Seed disinfection ratio (%)” value [4] was 100%. It also gave a Degree of phytotoxicity ([9]; in vivo) of 0, a Control value ([10]; in vivo) of 93% and a Control value [11] of 100%. The Degree of phytotoxicity ([12]; in vivo) was 0.
`CCOC(=O)c1sc(C(=O)c2ccccc2)c(OC(C)=O)c1OC(C)=O` [Compound No. 249, 3,4-Diacetoxy-2-carbethoxy-5-benzoylthiophene] was tested, and the Control value [5] was 100% and the Degree of phytotoxicity [12, 17] was 0.
For `CNC(=O)Oc1c(C#N)sc(C(=O)OC)c1OC(=O)NC` [compound 207], the Control value [1] was 100%, the Degree of phytotoxicity ([2]; Table 7, spray liquid 500 ppm) was 0 and the Degree of phytotoxicity [3] was 0. For the same compound, the “Seed disinfection ratio (%)” value [4] was 96%, the Degree of phytotoxicity [13] was 0 and the “Control value (%)” value [14] was 92%.
`COC(=O)Oc1c(C(=O)OCc2ccccc2)sc(C(=O)OCc2ccccc2)c1OC(=O)OC` [Compound No. 179, 3,4-Di-methoxycarbonyloxy-2,5-dibenzyloxycarbonylthiophene] was tested, and the Control value [1] was 100% and the Degree of phytotoxicity ([2]; Table 7, spray liquid 500 ppm) was 0.
`CCOC(=O)c1sc(C#N)c(OC(C)=O)c1OC(C)=O` [Compound No. 212, 3,4-Di-acetoxy-2-cyano-5-carbethoxythiophene] was tested, and the Degree of phytotoxicity [13] was 0 and the “Control value (%)” value [14] was 100%.
For `CCOC(=O)c1sc(C(=O)OCC)c(OC(=O)OC)c1OC(=O)OC` [Compound No. 22, 3,4-Dimethoxycarbonyloxy-2,5-dicarbethoxythiophene], the Control value [5] was 95%, the Control value [1] was 100% and the Degree of phytotoxicity [6, 18] was 0. The Degree of phytotoxicity [7] was 0, the Degree of phytotoxicity ([2]; Table 7, spray liquid 500 ppm) was 0 and the “Seed disinfection ratio (%)” value [8] was 97%. The Degree of phytotoxicity [3] was 0, the “Seed disinfection ratio (%)” value [4] was 100% and the Degree of phytotoxicity ([9]; Table 5, spray liquid 500 ppm, tomato) was 0. It also gave a Control value ([10]; Table 5, spray liquid 500 ppm, tomato late blight, inoculation 3 days after spraying, observed 3 days after inoculation) of 100%, a Control value [11] of 100% and a Degree of phytotoxicity [12, 17] of 0.
With `CCOCCOC(=O)c1sc(C(=O)OCCOCC)c(O)c1O` [Compound No. 159, 3,4-Dihydroxy-2,5-di-2'-ethoxyethoxycarbonyl-thiophene] the Degree of phytotoxicity ([6]; in vivo) was 0, the Degree of phytotoxicity ([9]; in vivo) was 0 and the Control value ([10]; in vivo) was 99%. For the same compound, the Control value [11] was 96%.
`CCOCCOC(=O)c1sc(C(=O)OCCOCC)c(OC(=O)NC)c1OC(=O)NC` [Compound No. 161, 3,4-Di-methylcarbamoyloxy-2,5-di-2'-ethoxyethoxycarbonylthiophene] gave a Degree of phytotoxicity ([6]; in vivo) of 0 and a Control value [11] of 100%.
Compound `CCOC(=O)c1sc(C(=O)c2ccccc2)c(OC(=O)OC)c1OC(=O)OC` [Compound No. 252, 3,4-Di(methoxycarbonyloxy)-2-carbethoxy-5-benzoylthiophene] has a Control value [5] of 90% and a Degree of phytotoxicity [12, 17] of 0.
For `CCOC(=O)Oc1c(C#N)sc(C(=O)OCC)c1OC(=O)OCC` [Compound No. 216, 3,4-Di-(ethoxycarbonyloxy)-2-cyano-5-carbethoxythiophene], the Control value [5] was 75%, the Degree of phytotoxicity [3] was 0 and the “Seed disinfection ratio (%)” value [4] was 100%. It also gave a Degree of phytotoxicity [12, 17] of 0.
Compound `CCOCCC(=O)Oc1c(C(=O)OCC)sc(C(=O)OCC)c1OC(=O)CCOCC` [Compound No. 295, 3,4-Di(2'-ethoxyethylcarbonyloxy)-2,5-dicarbethoxy-thiophene] has a Control value [15] of 94% and a Degree of phytotoxicity [16] of 0.
With `COCCOC(=O)c1sc(C(=O)OCCOC)c(OC(=O)COC)c1OC(=O)COC` [Compound No. 170, 3,4-Di-methoxymethylcarbonyloxy-2,5-di-2'-methoxyethoxycarbonylthiophene] the Control value [1] was 93% and the Degree of phytotoxicity ([2]; Table 7, spray liquid 500 ppm) was 0.
Compound `CCOC(=O)c1sc(C(=O)c2ccc(C)cc2)c(OC(=O)N(C)C)c1OC(=O)N(C)C` [Compound No. 287, 3,4-Di(N,N-dimethylcarbamoyloxy)-2-carbethoxy-5-(p-methylbenzoyl)-thiophene] has a Control value [5] of 90% and a Degree of phytotoxicity [12, 17] of 0.
`COC(=O)c1sc(C(=O)c2ccccc2)c(O)c1O` [Compound No. 246, 3,4-Dihydroxy-2-carbomethoxy-5-benzoylthiophene] was tested, and the Control value [5] was 100% and the Degree of phytotoxicity [12, 17] was 0.
`CCOC(=O)c1sc(C(=O)OCC)c(OC(=O)c2cccs2)c1OC(=O)c1cccs1` [Compound No. 229, 3,4-Di-(2'-thenoyloxy)-2,5-dicarbethoxythiophene] gave a Control value [1] of 100% and a Degree of phytotoxicity ([2]; Table 7, spray liquid 500 ppm) of 0.
For `CCOC(=O)c1sc(C(=O)c2ccccc2)c(O)c1O` [Compound No. 247, 3,4-Dihydroxy-2-carbethoxy-5-benzoylthiophene], the Control value [5] was 100% and the Degree of phytotoxicity [12, 17] was 0.
`CCOC(=O)c1sc(C#N)c(OC(=O)NC)c1OC(=O)NC` [compound 213] was tested, and the Control value [1] was 100%, the Degree of phytotoxicity ([2]; Table 7, spray liquid 500 ppm) was 0 and the Degree of phytotoxicity [3] was 0. The “Seed disinfection ratio (%)” value [4] was 94%, the Degree of phytotoxicity [13] was 0 and the “Control value (%)” value [14] was 92%.
In the case of `CCOC(=O)c1sc(C(=O)OCC)c(OC(=O)NC)c1OC(=O)NC` [Compound No. 50, 3,4-Bis(N-methylcarbamoyloxy)-2,5-dicarbethoxy-thiophene], the Control value [1] is reported as 100%, the Degree of phytotoxicity [6, 18] is reported as 0 and the Degree of phytotoxicity [7] is reported as 0. For the same compound, the Degree of phytotoxicity ([2]; Table 7, spray liquid 500 ppm) was 0, the “Seed disinfection ratio (%)” value [8] was 100% and the Degree of phytotoxicity [3] was 0. The “Seed disinfection ratio (%)” value [4] was 100% and the Control value [11] was 100%.
For `CCOC(=O)c1sc(C#N)c(O)c1O` [Compound No. 210, 3,4-Dihydroxy-2-cyano-5-carbethoxythiophene], the Degree of phytotoxicity [13] was 0 and the “Control value (%)” value [14] was 100%.
With `O=C1C2CC=CCC2C(=O)N1SC(Cl)(Cl)Cl` (stereo not shown) [Captan, reference compound] the Degree of phytotoxicity [13] was 0 and the “Control value (%)” value [14] was 90%.
`COC(=O)NC(=S)Nc1ccccc1NC(=S)NC(=O)OC` [Thiophanate-methyl, reference compound] was tested, and the Control value [5] was 70%.
For `OCCN1CN(CCO)CN(CCO)C1` [Triazine, reference compound], the Degree of phytotoxicity [6, 18] was 0 and the Control value [11] was 90%.
For `CCNC(=O)Oc1c(C#N)sc(C(=O)OC)c1OC(=O)NCC` [Compound No. 208, 3,4-Di(N-ethylcarbamoyloxy)-2-cyano-5-methoxycarbonylthiophene], the Control value [1] was 100%, the Degree of phytotoxicity ([2]; Table 7, spray liquid 500 ppm) was 0 and the Degree of phytotoxicity [3] was 0. The “Seed disinfection ratio (%)” value [4] was 97%, the Degree of phytotoxicity [13] was 0 and the “Control value (%)” value [14] was 78%.
With `N#Cc1c(Cl)c(Cl)c(Cl)c(C#N)c1Cl` [TPN, reference compound] the “Control value (%)” value ([1]; concentration of spray liquid 500 ppm, five days after the inoculation) was 100% and the Degree of phytotoxicity ([2]; concentration of spray liquid 500 ppm) was 0.
